In patent US8470766B2, “Protein kinase C therapy for the treatment of acute lung injury” (The Children's Hospital of Philadelphia, priority 2006, dated 2013):

Test system: neutrophils
Assay: TNF suppression of neutrophil apoptosis, kinase inhibitor pretreatment (initial studies)
Format: cell-based
Settings: pretreatment with kinase inhibitor
Description: δ-PKC has been identified as an important regulator of cytokine mediated anti-apoptotic and pro-inflammatory signaling in adherent neutrophils (Kilpatrick, L. E., et al. (2002) Am J Physiol Cell Physiol 283, C48-57; Kilpatrick, L. E., et al. (2004) Am J Physiol Cell Physiol 287, C633-42; Kilpatrick, L. E., et al. (2006) J Leukoc Biol. 80:1512-1521; Kilpatrick, L. E., et al. (2000) Am J Physiol Cell Physiol 279, C2011-8). Neutrophils undergo spontaneous apoptosis which can be suppressed in vitro by culturing cells in the presence of cytokines such as TNF (Kilpatrick, L. E., et al. (2002) Am J Physiol Cell Physiol 283, C48-57; Kilpatrick, L. E., et al. (2006) J Leukoc Biol. 80:1512-1521). […] Activation of caspases is one of the earliest markers of apoptosis occurring upstream of DNA fragmentation and PS externalization. Caspase 3 plays a critical role in spontaneous neutrophil apoptosis (Kilpatrick, L. E., et al. (2002) Am J Physiol Cell Physiol 283, C48-57; Daigle, I., Simon, H. U. (2001) Int Arch Allergy Immunol 126, 147-56; Scheel-Toellner, D., et al. (2004) Blood 104, 2557-64). […] However, recent reports have raised issues about the specificity of rottlerin as a δ-PKC inhibitor (Davies, S. P., et al. (2000) Biochem J 351, 95-105). To establish a role specifically for δ-PKC in the TNF-mediated anti-apoptotic signaling, a more specific inhibitor is required. […]

CC(=O)c1c(O)c(C)c(O)c(Cc2c(O)c3c(c(C(=O)/C=C/c4ccccc4)c2O)OC(C)(C)C=C3)c1O [rottlerin]
suppression of neutrophil apoptosis by TNF: inhibited
